Experimental data published in PubChem BioAssay (NCI).
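Interpolation was linear, between the two tested concentrations surrounding the appropriate level; five concentrations were tested over 48 hours in 96-well plates. Here, GI50 denotes the concentration required for 50% inhibition of growth. The concentration for full growth arrest is given as TGI.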

Legend:
Experiment in all cases: NCI-60 cell line screen, 48 h
EKVX NSCLC = test system: EKVX NSCLC
HT29 colon = test system: HT29 colon
HCC-2998 colon = test system: HCC-2998 colon
SK-MEL-5 melanoma = test system: SK-MEL-5 melanoma
HCT-116 colon = test system: HCT-116 colon
U251 CNS = test system: U251 CNS
SK-MEL-2 melanoma = test system: SK-MEL-2 melanoma
T-47D breast = test system: T-47D breast
OVCAR-8 ovarian = test system: OVCAR-8 ovarian
SK-OV-3 ovarian = test system: SK-OV-3 ovarian
NCI-H23 lung = test system: NCI-H23 lung
NCI-H522 lung = test system: NCI-H522 lung
MDA-MB-231 breast = test system: MDA-MB-231 breast
786-0 renal = test system: 786-0 renal
HOP-62 NSCLC = test system: HOP-62 NSCLC
UACC-62 melanoma = test system: UACC-62 melanoma
CAKI-1 renal = test system: CAKI-1 renal
LOX IMVI melanoma = test system: LOX IMVI melanoma
KM12 colon = test system: KM12 colon
HOP-92 NSCLC = test system: HOP-92 NSCLC
A549 NSCLC = test system: A549 NSCLC
RPMI-8226 leukemia = test system: RPMI-8226 leukemia
SR leukemia = test system: SR leukemia
M14 melanoma = test system: M14 melanoma
NCI-H226 lung = test system: NCI-H226 lung
SF-295 CNS = test system: SF-295 CNS
BT-549 breast = test system: BT-549 breast
K-562 leukemia = test system: K-562 leukemia
HL-60(TB) leukemia = test system: HL-60(TB) leukemia
UO-31 renal = test system: UO-31 renal
CCRF-CEM leukemia = test system: CCRF-CEM leukemia
SF-268 CNS = test system: SF-268 CNS
HCT-15 colon = test system: HCT-15 colon
NCI-H460 lung = test system: NCI-H460 lung
ACHN renal = test system: ACHN renal
RXF 393 renal = test system: RXF 393 renal
MOLT-4 leukemia = test system: MOLT-4 leukemia
PC-3 prostate = test system: PC-3 prostate
COLO 205 colon = test system: COLO 205 colon
NCI/ADR-RES ovarian = test system: NCI/ADR-RES ovarian
MDA-MB-435 = test system: MDA-MB-435
SNB-75 CNS = test system: SNB-75 CNS
IGROV1 ovarian = test system: IGROV1 ovarian
A498 renal = test system: A498 renal
SF-539 CNS = test system: SF-539 CNS
MALME-3M melanoma = test system: MALME-3M melanoma
OVCAR-3 ovarian = test system: OVCAR-3 ovarian
DU-145 prostate = test system: DU-145 prostate
SW-620 colon = test system: SW-620 colon
TK-10 renal = test system: TK-10 renal
SN12C renal = test system: SN12C renal
UACC-257 melanoma = test system: UACC-257 melanoma
SNB-19 CNS = test system: SNB-19 CNS
OVCAR-5 ovarian = test system: OVCAR-5 ovarian
HS 578T breast = test system: HS 578T breast
OVCAR-4 ovarian = test system: OVCAR-4 ovarian
SK-MEL-28 melanoma = test system: SK-MEL-28 melanoma
MCF7 breast = test system: MCF7 breast

SMILES: COc1ccc(/C=C2\CN(C(=O)C(Cl)Cl)C/C(=C\c3ccc(OC)c(OC)c3)C2=O)cc1OC
- GI50 (EKVX NSCLC): 0.366 µM
- TGI (EKVX NSCLC): 1.87 µM
- GI50 (HT29 colon): 0.0781 µM
- GI50 (HCC-2998 colon): 0.39 µM
- TGI (HCC-2998 colon): 1.44 µM
- GI50 (SK-MEL-5 melanoma): 0.199 µM
- TGI (SK-MEL-5 melanoma): 0.54 µM
- GI50 (HCT-116 colon): 0.0306 µM
- TGI (HCT-116 colon): 0.103 µM
- GI50 (U251 CNS): 0.0405 µM
- TGI (U251 CNS): 1.12 µM
- GI50 (SK-MEL-2 melanoma): 1.85 µM
- TGI (SK-MEL-2 melanoma): > 100 µM
- GI50 (T-47D breast): 0.361 µM
- TGI (T-47D breast): > 100 µM
- GI50 (OVCAR-8 ovarian): 0.0495 µM
- TGI (OVCAR-8 ovarian): > 100 µM
- GI50 (SK-OV-3 ovarian): 2.46 µM
- TGI (SK-OV-3 ovarian): > 100 µM
- GI50 (NCI-H23 lung): 0.41 µM
- TGI (NCI-H23 lung): 1.79 µM
- GI50 (NCI-H522 lung): 0.231 µM
- TGI (NCI-H522 lung): 0.697 µM
- GI50 (MDA-MB-231 breast): 0.344 µM
- TGI (MDA-MB-231 breast): 1.39 µM
- GI50 (786-0 renal): 0.326 µM
- TGI (786-0 renal): 1.19 µM
- GI50 (HOP-62 NSCLC): 0.883 µM
- GI50 (UACC-62 melanoma): 0.185 µM
- TGI (UACC-62 melanoma): 0.549 µM
- GI50 (CAKI-1 renal): 0.368 µM
- TGI (CAKI-1 renal): 1.98 µM
- GI50 (LOX IMVI melanoma): 0.0282 µM
- TGI (LOX IMVI melanoma): 0.0965 µM
- GI50 (KM12 colon): 0.0987 µM
- TGI (KM12 colon): 0.332 µM
- GI50 (HOP-92 NSCLC): 0.532 µM
- TGI (HOP-92 NSCLC): 3.79 µM
- GI50 (A549 NSCLC): 1.28 µM
- TGI (A549 NSCLC): > 100 µM
- GI50 (RPMI-8226 leukemia): 0.0306 µM
- TGI (RPMI-8226 leukemia): 0.155 µM
- GI50 (SR leukemia): 0.0352 µM
- TGI (SR leukemia): > 100 µM
- GI50 (M14 melanoma): 0.0926 µM
- TGI (M14 melanoma): 0.356 µM
- GI50 (NCI-H226 lung): 0.43 µM
- TGI (NCI-H226 lung): 1.72 µM
- GI50 (SF-295 CNS): 0.243 µM
- TGI (SF-295 CNS): 0.803 µM
- GI50 (BT-549 breast): 0.535 µM
- TGI (BT-549 breast): 2.98 µM
- GI50 (K-562 leukemia): 0.0366 µM
- TGI (K-562 leukemia): > 100 µM
- GI50 (HL-60(TB) leukemia): 0.221 µM
- TGI (HL-60(TB) leukemia): 0.711 µM
- GI50 (UO-31 renal): 0.184 µM
- TGI (UO-31 renal): 0.423 µM
- GI50 (CCRF-CEM leukemia): 0.0341 µM
- TGI (CCRF-CEM leukemia): > 100 µM
- GI50 (SF-268 CNS): 2.42 µM
- TGI (SF-268 CNS): > 100 µM
- GI50 (HCT-15 colon): 0.069 µM
- TGI (HCT-15 colon): 0.446 µM
- GI50 (NCI-H460 lung): 0.371 µM
- TGI (NCI-H460 lung): 1.72 µM
- GI50 (ACHN renal): 0.165 µM
- TGI (ACHN renal): 0.381 µM
- GI50 (RXF 393 renal): 0.209 µM
- TGI (RXF 393 renal): 0.492 µM
- GI50 (MOLT-4 leukemia): 0.135 µM
- TGI (MOLT-4 leukemia): > 100 µM
- GI50 (PC-3 prostate): 0.301 µM
- TGI (PC-3 prostate): 2.4 µM
- GI50 (COLO 205 colon): 0.307 µM
- TGI (COLO 205 colon): 1.6 µM
- GI50 (NCI/ADR-RES ovarian): 0.0864 µM
- TGI (NCI/ADR-RES ovarian): > 67.5 µM
- GI50 (MDA-MB-435): 0.0528 µM
- TGI (MDA-MB-435): 0.265 µM
- GI50 (SNB-75 CNS): 0.651 µM
- TGI (SNB-75 CNS): > 100 µM
- GI50 (IGROV1 ovarian): 0.321 µM
- TGI (IGROV1 ovarian): 1.75 µM

SMILES: O=C(c1cc(F)c(Cl)cc1Cl)N1N=C(c2ccccc2)CC1(O)c1ccccc1 (centres undefined)
- GI50 (EKVX NSCLC): 19.2 µM
- TGI (EKVX NSCLC): 65.5 µM
- GI50 (HT29 colon): 12.1 µM
- TGI (HT29 colon): 25.3 µM
- GI50 (HCC-2998 colon): 16.9 µM
- TGI (HCC-2998 colon): 37.8 µM
- GI50 (SK-MEL-5 melanoma): 14 µM
- TGI (SK-MEL-5 melanoma): 26.9 µM
- GI50 (HCT-116 colon): 10.1 µM
- TGI (HCT-116 colon): 21.7 µM
- GI50 (A498 renal): 11.8 µM
- TGI (A498 renal): 24 µM
- GI50 (U251 CNS): 18.4 µM
- TGI (U251 CNS): 38.5 µM
- GI50 (SF-539 CNS): 16.5 µM
- TGI (SF-539 CNS): 30.2 µM
- GI50 (MALME-3M melanoma): 25.5 µM
- TGI (MALME-3M melanoma): 55.6 µM
- GI50 (SK-MEL-2 melanoma): 18.1 µM
- TGI (SK-MEL-2 melanoma): 38 µM
- GI50 (T-47D breast): 18.1 µM
- TGI (T-47D breast): 53.7 µM
- GI50 (OVCAR-3 ovarian): 18.9 µM
- TGI (OVCAR-3 ovarian): 59.5 µM
- GI50 (OVCAR-8 ovarian): 25.5 µM
- TGI (OVCAR-8 ovarian): 72.4 µM
- GI50 (DU-145 prostate): 17.3 µM
- TGI (DU-145 prostate): 35.9 µM
- GI50 (SK-OV-3 ovarian): 28.4 µM
- TGI (SK-OV-3 ovarian): 80.1 µM
- GI50 (NCI-H23 lung): 20.2 µM
- TGI (NCI-H23 lung): 48.2 µM
- GI50 (NCI-H522 lung): 14.5 µM
- TGI (NCI-H522 lung): 36.9 µM
- GI50 (MDA-MB-231 breast): 15.7 µM
- TGI (MDA-MB-231 breast): 33.3 µM
- GI50 (786-0 renal): 15.8 µM
- TGI (786-0 renal): 40.9 µM
- GI50 (SW-620 colon): 18.9 µM
- TGI (SW-620 colon): 36.9 µM
- GI50 (TK-10 renal): 30.8 µM
- TGI (TK-10 renal): 80.8 µM
- GI50 (SN12C renal): 18.7 µM
- TGI (SN12C renal): 40.5 µM
- GI50 (HOP-62 NSCLC): 13.7 µM
- TGI (HOP-62 NSCLC): 27.6 µM
- GI50 (UACC-62 melanoma): 11.1 µM
- TGI (UACC-62 melanoma): 23.9 µM
- GI50 (CAKI-1 renal): 31.7 µM
- TGI (CAKI-1 renal): > 100 µM
- GI50 (UACC-257 melanoma): 24.7 µM
- TGI (UACC-257 melanoma): 51.6 µM
- GI50 (LOX IMVI melanoma): 17.1 µM
- TGI (LOX IMVI melanoma): 30.8 µM
- GI50 (KM12 colon): 20.1 µM
- TGI (KM12 colon): 44.8 µM
- GI50 (HOP-92 NSCLC): 13 µM
- TGI (HOP-92 NSCLC): 29.8 µM
- GI50 (A549 NSCLC): 27.8 µM
- TGI (A549 NSCLC): > 100 µM
- GI50 (RPMI-8226 leukemia): 11.5 µM
- TGI (RPMI-8226 leukemia): 35.4 µM
- GI50 (SNB-19 CNS): 29.2 µM
- TGI (SNB-19 CNS): 93.7 µM
- GI50 (OVCAR-5 ovarian): 23.3 µM
- TGI (OVCAR-5 ovarian): 70.9 µM
- GI50 (NCI-H226 lung): 17.3 µM
- TGI (NCI-H226 lung): 36.5 µM
- GI50 (HS 578T breast): 23.8 µM
- TGI (HS 578T breast): 58.8 µM
- GI50 (SF-295 CNS): 32.9 µM
- TGI (SF-295 CNS): > 100 µM
- GI50 (BT-549 breast): 17.7 µM
- TGI (BT-549 breast): 40.5 µM
- GI50 (K-562 leukemia): 12.2 µM
- TGI (K-562 leukemia): 27.2 µM
- GI50 (HL-60(TB) leukemia): 17.4 µM
- TGI (HL-60(TB) leukemia): 41.2 µM
- GI50 (UO-31 renal): 15.7 µM
- TGI (UO-31 renal): 30.1 µM
- GI50 (OVCAR-4 ovarian): 17.8 µM
- TGI (OVCAR-4 ovarian): 57.8 µM
- GI50 (SF-268 CNS): 21.9 µM
- TGI (SF-268 CNS): 53.2 µM
- GI50 (HCT-15 colon): 13.8 µM
- TGI (HCT-15 colon): 28.3 µM
- GI50 (NCI-H460 lung): 19.1 µM
- TGI (NCI-H460 lung): 36.7 µM
- GI50 (SK-MEL-28 melanoma): 16.2 µM
- TGI (SK-MEL-28 melanoma): 31.6 µM
- GI50 (ACHN renal): 23 µM
- TGI (ACHN renal): 59.4 µM
- GI50 (RXF 393 renal): 23.6 µM
- TGI (RXF 393 renal): 48.1 µM
- GI50 (MOLT-4 leukemia): 19.8 µM
- TGI (MOLT-4 leukemia): 43 µM
- GI50 (PC-3 prostate): 12.9 µM
- TGI (PC-3 prostate): 40.5 µM
- GI50 (COLO 205 colon): 17 µM
- TGI (COLO 205 colon): 31.4 µM
- GI50 (NCI/ADR-RES ovarian): 19 µM
- TGI (NCI/ADR-RES ovarian): 41 µM
- GI50 (MCF7 breast): 18.3 µM
- TGI (MCF7 breast): 38.2 µM
- GI50 (MDA-MB-435): 22.1 µM
- TGI (MDA-MB-435): 49.4 µM
- GI50 (SNB-75 CNS): 20.7 µM
- TGI (SNB-75 CNS): 59.6 µM
- GI50 (IGROV1 ovarian): 15.2 µM
- TGI (IGROV1 ovarian): 36.7 µM
